Laboratory results: US8269007B2, “Crystalline form II of 7-(dimethoxy-methyl) camptothecin, its use as intermediate and products obtained therefrom” (Sigma-Tau Industrie Farmaceutiche Riunite SpA, priority 2007, dated 2012)

Test: Thermal behaviour (TGA melting range apparatus Mettler TG 50, confirmed by DSC Mettler DSC 30)
Conditions: for decomposition temperature: heat ramp 20° C./min (TGA/DSC)

In the case of `CC[C@@]1(O)C(=O)OCc2c1cc1n(c2=O)Cc2c-1nc1ccccc1c2C(OC)OC` [Form I, 7-(dimethoxy-methyl)camptothecin], the “thermal stability of one crystal form compared with the other” value (FT-IR, powder x-ray and TGA / DSC-TGA comparison of Form I and Form II) is reported as “less stable”, the decomposition temperature (listed as 7-(dimethoxy-methyl)camptothecin form I) is reported as 123.38 °C and the decomposition temperature (listed as form I) is reported as 123.38 °C.
`CC[C@@]1(O)C(=O)OCc2c1cc1n(c2=O)Cc2c-1nc1ccccc1c2C(OC)OC` [Form II, (4S)-11-(dimethoxymethyl)-4-ethyl-4-hydroxy-1H-pyrano[3′,4′:6,7]indolizino[1,2-b]quinoline-3,14(4H,12H)-dione] gave a decomposition temperature of 173.56 °C.
